{"source": "patent US20100203159A1", "about": "“METAL COMPONENT […] IN PLANT” (COSMO OIL CO., LTD., priority 2007, published 2010)", "key": {"barley [1]": {"tested_on": "barley", "assay": "Metal absorption-enhancing effect in barley hydroponics (water culture medium A), ICP metal analysis", "type": "in vivo, Barley (race: Fiber snow)", "details": "for calcium content-enhancing effect in barley: FIG. 1; for zinc content-enhancing effect in barley: FIG. 5; for copper content-enhancing effect in barley: FIG. 4; for manganese content-enhancing effect in barley: FIG. 2; for iron content-enhancing effect in barley: FIG. 3", "protocol": "Barley (race: Fiber snow) was seeded on river sand, sprouted, and grown for 9 days. After the growth, the sand was washed out with caring so as not to hurt roots and the roots were cut so as to adjust the length to 2 cm. The roots were immersed in a water culture medium A and hydroponics was performed.\nAs water culture media, one in which no 5-aminolevulinic acid was dissolved and those in which the compound was dissolved so that each one has a concentration of 0.1, 0.3, or 1 ppm were prepared. The water culture medium was replaced 13 days after the start of the hydroponics, and hydroponics was continued for another 6 days. After the hydroponics, the plant was dried at 50° C. for two nights and then was subjected to ICP metal analysis.\nSimilar operations were performed as in Example 6 except that the concentration of the added 5-aminolevulinic acid was adjusted to 0, 0.3, or 1 ppm and the manganese concentration in barley was analyzed.\nSimilar operations were performed as in Example 6 except that the composition of the water culture medium was changed to twofold concentration of the water culture medium A and the concentration of the added 5-aminolevulinic acid was adjusted to 0, 1, or 3 ppm, and then the iron concentration in barley was analyzed.\nSimilar operations were performed as in Example 6 except that the water culture medium A and a water culture medium having a composition which was twice the composition of the water culture medium A were used and the concentration of the added 5-aminolevulinic acid was adjusted to 0, 0.1, or 0.3 ppm, and then the copper concentration in barley was analyzed. The results are shown in FIG. 4 (left one in the figure is for the water culture medium A and right one is for twofold concentration of the water culture medium A).\nSimilar operations were performed as in Example 6 except that the concentration of the added 5-aminolevulinic acid was adjusted to 0, 0.1, or 0.3 ppm, and the zinc concentration in barley was analyzed.\nSimilar operations were performed as in Example 6 except that the concentration of the added 5-aminolevulinic acid was adjusted to 0, 0.1, 0.3, 1, or 3 ppm, and the manganese concentration in barley was analyzed.\nSimilar operations were performed as in Example 6 except that the concentration of the added 5-aminolevulinic acid was adjusted to 0 or 30 ppm, and the calcium concentration in barley was analyzed.\nSimilar operations were performed as in Example 6 except that the concentration of the added 5-aminolevulinic acid was adjusted to 0 or 30 ppm, and the manganese concentration in barley was analyzed.\nSimilar operations were performed as in Example 6 except that the concentration of the added 5-aminolevulinic acid was adjusted to 0 or 30 ppm and the iron concentration in barley was analyzed.\nSimilar operations were performed as in Example 6 except that the concentration of the added 5-aminolevulinic acid was adjusted to 0 or 30 ppm, and the copper concentration in barley was analyzed.\nSimilar operations were performed as in Example 6 except that the concentration of the added 5-aminolevulinic acid was adjusted to 0 or 30 ppm, and the zinc concentration in barley was analyzed.\nSimilar operations were performed as in Example 6 except that the concentration of the added 5-aminolevulinic acid was adjusted to 0 or 30 ppm and the magnesium concentration in barley was analyzed."}, "potato": {"tested_on": "potato", "assay": "Metal absorption-enhancing effect in potato tubers by foliage treatment, metal analysis", "type": "in vivo", "details": "foliage treatment 1 ppm, from 30th day, then 8 times every other week, tubers harvested 105th day", "protocol": "A seed tuber of potato was subjected to light-exposure and sprout-growth to stimulate germination. The germinated potato was planted in a pot of 1/20000×10 are in an amount of 1 tuber per pot. On 30th day after the planting (height of terrestrial portion: about 30 cm), 5-Aminolevulinic Acid hydrochloride was dissolved in a developing agent-diluted (2000 times) liquid in a concentration of 0 or 1 ppm and was applied to foliage treatment. Thereafter, the foliage treatment was performed 8 times every other week. The number of pots was 3 pots per test plot and new sprouts were removed while a strong thick sprout was left so that the number of sprout per pot was 1. On 105th day after the planting, potato as tubers was harvested and the tubers were selected from each test plot so that the total weight was 120±10 g. Then, they were pared and completely dried at 50° C. for two nights. Thereafter, they are pulverized and mixed in a mixer and then […] metal analysis was performed.\nSimilar operations were performed as in Example 14 and the magnesium concentration in potato was analyzed."}, "radish": {"tested_on": "radish", "assay": "Metal absorption-enhancing effect in radish by foliage treatment, metal analysis", "type": "in vivo", "details": "foliage treatment 1 or 10 ppm, 100 L per 10 are, together with DTPA iron and magnesium sulfate, harvest 25th day", "from_the_text": "Radish was sowed in a pot of 1/57000×10 are in an amount of 6 seeds per pot and grown. An andosol (Kuroboku-soil) was used as soil and watering was suitably performed. On 11th day after the seeding (a two true leaves-developed stage), a solution containing 5-aminolevulinic acid hydrochloride prepared to a concentration of 0, 1, or 10 ppm in a developing agent-diluted (2000 times) liquid was applied to foliage treatment. Moreover, on this occasion, DTPA iron and magnesium sulfate were transformed into solutions having a concentration of 1.8 and 4.5 ppm in terms of Fe and MgO, respectively, and were applied to foliage treatment together with 5-aminolevulinic acid hydrochloride. The amount used for the treatment was 100 L per 10 are. The number of pots was 5 pots per test plot. On 15th day and 20th day after the seeding, thinning was performed and the number of plants per pot was adjusted to 4 individuals. On 25th day after the seeding, the plants were harvested and completely dried at 50° C. for two nights. Thereafter, they are pulverized and mixed in a mixer and then IPC metal analysis was performed.\nSimilar operations were performed as in Example and the zinc concentration in radish was analyzed."}, "barley [2]": {"tested_on": "barley", "assay": "Metal absorption-enhancing effect in barley hydroponics (water culture medium A), ICP metal analysis", "type": "in vivo, Barley (race: Fiber snow)", "details": "0.1, 0.3, 1, or 3 ppm in water culture medium A; FIG. 6"}, "spinach": {"tested_on": "spinach", "assay": "Metal absorption-enhancing effect in spinach by daily spraying, metal content in dry weight by ICP", "type": "in vivo", "protocol": "Two containers were provided and soil was placed in each of them, in which seeds of spinach were uniformly planted. From the day when the seeds were planted, water was applied once a day by means of a sprinkling can. To one of the container, tap water in which 5-aminolevulinic acid hydrochloride was dissolved in a concentration of 1 ppm was sprayed once a day in an amount of about 50 mL by means of a sprayer. Thinning was performed 3 weeks after the seed planting, and harvest was performed on the two containers after 38 days. At the harvest, the upper portions from the ground were cut out and the plant bodies were subjected to natural drying. After drying, the plant bodies was ground one by one in a mortar, the calcium content in dry weight was measured by ICP, and the concentration was calculated.\nSimilar operations were performed as in Example 1 and the manganese concentration in spinach was calculated.\nSimilar operations were performed as in Example 1 and the iron concentration in spinach was calculated.\nSimilar operations were performed as in Example 1 and the copper concentration in spinach was calculated.\nSimilar operations were performed as in Example 1 and the zinc concentration in spinach was calculated."}}, "data": [{"compound": "Cl.NCC(=O)CCC(=O)O", "note": "[5-aminolevulinic acid hydrochloride]", "values": [{"measurement": "calcium content-enhancing effect in barley", "setting": "barley [1]; 0.1, 0.3, or 1 ppm in water culture medium A", "result": "calcium content-enhancing effect was observed"}, {"measurement": "zinc content-enhancing effect in barley", "setting": "barley [1]; 0.1 or 0.3 ppm in water culture medium A", "result": "zinc content-enhancing effect was observed"}, {"measurement": "copper content-enhancing effect in barley", "setting": "barley [1]; 0.1 or 0.3 ppm, water culture medium A and twofold concentration of medium A", "result": "copper content-enhancing effect was observed"}, {"measurement": "manganese content-enhancing effect in barley", "setting": "barley [1]; 0.3 or 1 ppm in water culture medium A", "result": "manganese content-enhancing effect was observed"}, {"measurement": "iron content-enhancing effect in barley", "setting": "barley [1]; 1 or 3 ppm, twofold concentration of water culture medium A", "result": "iron content-enhancing effect was observed"}, {"measurement": "calcium content-enhancing effect in barley", "setting": "barley [1]; 30 ppm in water culture medium, Comparative Example 1", "result": "calcium content-enhancing effect was not observed"}, {"measurement": "manganese content-enhancing effect in barley", "setting": "barley [1]; 30 ppm in water culture medium, Comparative Example 2", "result": "manganese content-enhancing effect was not observed"}, {"measurement": "iron content-enhancing effect in barley", "setting": "barley [1]; 30 ppm in water culture medium, Comparative Example 3", "result": "iron content-enhancing effect was not observed"}, {"measurement": "copper content-enhancing effect in barley", "setting": "barley [1]; 30 ppm in water culture medium, Comparative Example 4", "result": "copper content-enhancing effect was not observed"}, {"measurement": "zinc content-enhancing effect in barley", "setting": "barley [1]; 30 ppm in water culture medium, Comparative Example 5", "result": "zinc content-enhancing effect was not observed"}, {"measurement": "magnesium content-enhancing effect in barley", "setting": "barley [1]; 30 ppm in water culture medium, Comparative Example 6, FIG. 6", "result": "magnesium content-enhancing effect was not observed"}, {"measurement": "iron content-enhancing effect in potato", "setting": "potato; FIG. 9", "result": "iron content-enhancing effect was observed"}, {"measurement": "magnesium content-enhancing effect in potato", "setting": "potato; FIG. 10", "result": "magnesium content-enhancing effect was observed"}, {"measurement": "manganese content-enhancing effect in radish", "setting": "radish; FIG. 7", "result": "manganese content-enhancing effect was observed"}, {"measurement": "zinc content-enhancing effect in radish", "setting": "radish; FIG. 8", "result": "zinc content-enhancing effect was observed"}, {"measurement": "magnesium content-enhancing effect in barley", "setting": "barley [2]", "result": "magnesium content-enhancing effect was observed"}, {"measurement": "Average value of calcium concentration in spinach", "setting": "spinach; 1 ppm in tap water sprayed once a day, about 50 mL, harvest after 38 days, dry weight, n = 18, no-ALA control 0.61", "result": 0.68, "unit": "%"}, {"measurement": "Average value of iron concentration in spinach", "setting": "spinach; 1 ppm sprayed once a day, harvest after 38 days, dry weight, n = 18, no-ALA control 0.015", "result": 0.049, "unit": "%"}, {"measurement": "Average value of copper concentration in spinach", "setting": "spinach; 1 ppm sprayed once a day, harvest after 38 days, dry weight, n = 18, no-ALA control 0.023", "result": 0.029, "unit": "%"}, {"measurement": "Average value of manganese concentration in spinach", "setting": "spinach; 1 ppm sprayed once a day, harvest after 38 days, dry weight, n = 18, no-ALA control 0.027", "result": 0.031, "unit": "%"}, {"measurement": "Average value of zinc concentration in spinach", "setting": "spinach; 1 ppm sprayed once a day, harvest after 38 days, dry weight, n = 18, no-ALA control 0.033", "result": 0.048, "unit": "%"}, {"measurement": "calcium content-enhancing effect in spinach", "setting": "spinach; spraying, 1 ppm once a day", "result": "calcium content-enhancing effect was observed"}, {"measurement": "copper content-enhancing effect in spinach", "setting": "spinach; spraying, 1 ppm once a day", "result": "copper content-enhancing effect was observed"}, {"measurement": "iron content-enhancing effect in spinach", "setting": "spinach; spraying, 1 ppm once a day", "result": "iron content-enhancing effect was observed"}, {"measurement": "manganese content-enhancing effect in spinach", "setting": "spinach; spraying, 1 ppm once a day", "result": "manganese content-enhancing effect was observed"}, {"measurement": "zinc content-enhancing effect in spinach", "setting": "spinach; spraying, 1 ppm once a day", "result": "zinc content-enhancing effect was observed"}]}]}
